# Measured values reported in ChEMBL document CHEMBL5143618, “Design, synthesis, and antitumor activity evaluation of novel acyl sulfonamide spirodienones” (Bioorg Med Chem, 2022).
# Calls of active or inactive are those of the source. No cut-off for these calls is given here.
# Legend:
# 4T1 [1] = assay: Antitumor activity against mouse 4T1 cells inoculated orthotopic mouse assessed as reduction in tumor volume at 10 mg/kg, ip administered every day measured after 14 days (reference value: 623 mm3); assay type: functional; details: time 14 day
# 4T1 [2] = assay: Antitumor activity against mouse 4T1 cells inoculated orthotopic mouse assessed as tumor growth inhibition ratio at 10 mg/kg, ip administered every day measured after 14 days; assay type: functional; set-up: scale not given: the % may be the effect or the level left; details: time 14 day
# [3] = Toxicity in orthotopic mouse inoculated with mouse 4T1 cells assessed as body weight loss at 10 mg/kg, ip administered every day measured after 14 days; assay type: organism-based; details: in vivo, 336 h, time 14 day
# [4] = Toxicity in orthotopic mouse inoculated with mouse 4T1 cells assessed as sparse and dull hair at 10 mg/kg, ip administered every day measured after 8 days; assay type: organism-based; details: in vivo, 192 h, time 8 day
# [5] = Toxicity in orthotopic mouse inoculated with mouse 4T1 cells assessed as hardened skin at 10 mg/kg, ip administered every day measured after 8 days; assay type: organism-based; details: in vivo, 192 h, time 8 day
# [6] = Toxicity in orthotopic mouse inoculated with mouse 4T1 cells assessed as liver cell swelling at 10 mg/kg, ip administered every day measured after 14 days by hematoxylin and eosin staining based assay; assay type: organism-based; details: in vivo, 336 h, time 14 day
# 4T1 [7] = assay: Antitumor activity against mouse 4T1 cells inoculated orthotopic mouse assessed as apoptotic cells in tumor tissue by TUNEL assay (reference value: 3.13%); assay type: functional
# 4T1 [8] = assay: Antitumor activity against mouse 4T1 cells inoculated orthotopic mouse assessed as change in gross appearance of tumor at 10 mg/kg, ip administered every day measured after 14 days; assay type: functional, organism-based; details: time 14.0 day
# 4T1 [9] = assay: Antitumor activity against mouse 4T1 cells inoculated orthotopic mouse assessed as decrease in tumor weight at 10 mg/kg, ip administered every day measured after 14 days; assay type: functional, organism-based; details: time 14.0 day
# MDA-MB-231 [10] = assay: Antiproliferative activity against human MDA-MB-231 cells assessed as inhibition of cell growth; assay type: functional, cell-based
# A549 [11] = assay: Antiproliferative activity against human A549 cells assessed as inhibition of cell growth; assay type: functional, cell-based
# HeLa [12] = assay: Antiproliferative activity against human HeLa cells assessed as inhibition of cell growth; assay type: functional, cell-based
# MDA-MB-231 [13] = assay: cells; assay type: functional, cell-based; details: Homo sapiens, MDA-MB-231, 74 h
# Description: Antiproliferative activity against human MDA-MB-231 cells assessed as inhibition of cell growth measured after 74 hrs by SRB assay
# A549 [14] = assay: cells; assay type: functional, cell-based; details: Homo sapiens, A549, 74 h
# Description: Antiproliferative activity against human A549 cells assessed as inhibition of cell growth measured after 74 hrs by SRB assay
# [15] = Acute toxicity in Kunming mouse assessed as mortality at 100 mg/kg, ip single dose; assay type: organism-based; details: in vivo
# HeLa [16] = assay: cells; assay type: functional, cell-based; details: Homo sapiens, 74 h
# Description: Antiproliferative activity against human HeLa cells assessed as inhibition of cell growth measured after 74 hrs by SRB assay
# HepG2 = assay: Antiproliferative activity against human HepG2 cells assessed as inhibition of cell growth measured after 74 hrs by SRB assay; assay type: functional, cell-based; details: HepG2, 74 h
# MDA-MB-231 [17] = assay: Induction of apoptosis in human MDA-MB-231 cells assessed as necrotic cells at 10 uM incubated for 24 hrs by annexin V-FITC and PI staining based flow cytometry analysis (reference value: 0.68 %); assay type: functional
# MDA-MB-231 [18] = assay: Induction of apoptosis in human MDA-MB-231 cells assessed as late apoptotic cells at 10 uM incubated for 24 hrs by annexin V-FITC and PI staining based flow cytometry analysis (reference value: 1.02 %); assay type: functional
# MDA-MB-231 [19] = assay: Induction of apoptosis in human MDA-MB-231 cells assessed as early apoptotic cells at 10 uM incubated for 24 hrs by annexin V-FITC and PI staining based flow cytometry analysis (reference value: 4.66 %); assay type: functional
# MDA-MB-231 [20] = assay: Induction of apoptosis in human MDA-MB-231 cells assessed as viable cells at 10 uM incubated for 24 hrs by annexin V-FITC and PI staining based flow cytometry analysis (reference value: 93.6 %); assay type: functional; details: read-out: Activity
# [21] = Acute toxicity in Kunming mouse assessed as mortality at 150 mg/kg, ip single dose; assay type: organism-based; details: in vivo, read-out: Activity
# [22] = Acute toxicity in Kunming mouse assessed as mortality at 200 mg/kg, ip single dose; assay type: organism-based; details: in vivo, read-out: Activity
# [23] = Acute toxicity in Kunming mouse assessed as mortality at 250 mg/kg, ip single dose; assay type: organism-based; details: in vivo, read-out: Activity
# [24] = Acute toxicity in female Kunming mouse assessed as drug tolerance at 100 to 250 mg/kg, ip single dose measured up to 2 weeks; assay type: organism-based; details: in vivo, 336 h, dose 100-250 mg/kg
# [25] = Acute toxicity in male Kunming mouse assessed as drug tolerance at 100 to 250 mg/kg, ip single dose measured up to 2 weeks; assay type: organism-based; details: in vivo, 336 h, dose 100-250 mg/kg
# [26] = Acute toxicity in female Kunming mouse assessed as body weight gain at 100 to 250 mg/kg, ip single dose measured up to 2 weeks; assay type: organism-based; details: in vivo, 336 h, dose 100-250 mg/kg
# [27] = Acute toxicity in male Kunming mouse assessed as body weight gain at 100 to 250 mg/kg, ip single dose measured up to 2 weeks; assay type: organism-based; details: in vivo, 336 h, dose 100-250 mg/kg
# [28] = Acute toxicity in female Kunming mouse assessed as clinical signs of toxicity in eyes at 100 to 250 mg/kg, ip single dose measured up to 2 weeks; assay type: organism-based; details: in vivo, 336 h, dose 100-250 mg/kg
# [29] = Acute toxicity in male Kunming mouse assessed as clinical signs of toxicity in eyes at 100 to 250 mg/kg, ip single dose measured up to 2 weeks; assay type: organism-based; details: in vivo, 336 h, dose 100-250 mg/kg
# [30] = Acute toxicity in female Kunming mouse assessed as clinical signs of toxicity in skin at 100 to 250 mg/kg, ip single dose measured up to 2 weeks; assay type: organism-based; details: in vivo, 336 h, dose 100-250 mg/kg
# [31] = Acute toxicity in male Kunming mouse assessed as clinical signs of toxicity in skin at 100 to 250 mg/kg, ip single dose measured up to 2 weeks; assay type: organism-based; details: in vivo, 336 h, dose 100-250 mg/kg
# [32] = Acute toxicity in female Kunming mouse assessed as clinical signs of toxicity in fur at 100 to 250 mg/kg, ip single dose measured up to 2 weeks; assay type: organism-based; details: in vivo, 336 h, dose 100-250 mg/kg
# [33] = Acute toxicity in male Kunming mouse assessed as clinical signs of toxicity in fur at 100 to 250 mg/kg, ip single dose measured up to 2 weeks; assay type: organism-based; details: in vivo, 336 h, dose 100-250 mg/kg
# [34] = Acute toxicity in Kunming mouse assessed as pathological changes in heart at 100 to 250 mg/kg, ip single dose by hematoxylin and eosin staining based assay; assay type: organism-based; details: in vivo, dose 100-250 mg/kg
# [35] = Acute toxicity in Kunming mouse assessed as pathological changes in liver at 100 to 250 mg/kg, ip single dose by hematoxylin and eosin staining based assay; assay type: organism-based; details: in vivo, dose 100-250 mg/kg
# [36] = Acute toxicity in Kunming mouse assessed as pathological changes in spleen at 100 to 250 mg/kg, ip single dose by hematoxylin and eosin staining based assay; assay type: organism-based; details: in vivo, dose 100-250 mg/kg
# [37] = Acute toxicity in Kunming mouse assessed as pathological changes in lung at 100 to 250 mg/kg, ip single dose by hematoxylin and eosin staining based assay; assay type: organism-based; details: in vivo, dose 100-250 mg/kg
# [38] = Acute toxicity in Kunming mouse assessed as pathological changes in kidney at 100 to 250 mg/kg, ip single dose by hematoxylin and eosin staining based assay; assay type: organism-based; details: in vivo, dose 100-250 mg/kg
# [39] = Toxicity in orthotopic mouse inoculated with mouse 4T1 cells assessed as side effects at 10 mg/kg, ip administered every day measured after 14 days; assay type: organism-based; details: in vivo, 336 h, time 14 day
# [40] = Toxicity in orthotopic mouse inoculated with mouse 4T1 cells assessed as appearance of lesions in heart at 10 mg/kg, ip administered every day measured after 14 days by hematoxylin and eosin staining based assay; assay type: organism-based; details: in vivo, 336 h, time 14 day
# [41] = Toxicity in orthotopic mouse inoculated with mouse 4T1 cells assessed as appearance of lesions in liver at 10 mg/kg, ip administered every day measured after 14 days by hematoxylin and eosin staining based assay; assay type: organism-based; details: in vivo, 336 h, time 14 day
# [42] = Toxicity in orthotopic mouse inoculated with mouse 4T1 cells assessed as appearance of lesions in spleen at 10 mg/kg, ip administered every day measured after 14 days by hematoxylin and eosin staining based assay; assay type: organism-based; details: in vivo, 336 h, time 14 day
# [43] = Toxicity in orthotopic mouse inoculated with mouse 4T1 cells assessed as appearance of lesions in lung at 10 mg/kg, ip administered every day measured after 14 days by hematoxylin and eosin staining based assay; assay type: organism-based; details: in vivo, 336 h, time 14 day
# [44] = Toxicity in orthotopic mouse inoculated with mouse 4T1 cells assessed as appearance of lesions in kidney at 10 mg/kg, ip administered every day measured after 14 days by hematoxylin and eosin staining based assay; assay type: organism-based; details: in vivo, 336 h, time 14 day
# MDA-MB-231 [45] = assay: Induction of cell cycle arrest in human MDA-MB-231 cells assessed as accumulation of cells in G1 phase at 10 uM incubated for 24 hrs by PI staining based flow cytometry analysis (reference value: 74.44 %); assay type: functional
# MDA-MB-231 [46] = assay: Induction of cell cycle arrest in human MDA-MB-231 cells assessed as accumulation of cells in G2 phase at 10 uM incubated for 24 hrs by PI staining based flow cytometry analysis (reference value: 8.95 %); assay type: functional
# MDA-MB-231 [47] = assay: Induction of cell cycle arrest in human MDA-MB-231 cells assessed as accumulation of cells in S phase at 10 uM incubated for 24 hrs by PI staining based flow cytometry analysis (reference value: 16.61 %); assay type: functional
# MDA-MB-231 [48] = assay: Induction of cell cycle arrest in human MDA-MB-231 cells assessed as accumulation of cells in G2/G1 phase at 10 uM incubated for 24 hrs by PI staining based flow cytometry analysis (reference value: 1.80 %); assay type: functional
smiles,measurement,setting,value
COc1cccc2c1C(=O)c1c(O)c3c(c(O)c1C2=O)C[C@@](O)(C(=O)CO)C[C@@H]3O[C@H]1C[C@H](N)[C@H](O)[C@H](C)O1 [DOXORUBICIN],Activity,4T1 [1],265 mm3
same,Activity,4T1 [2],50%
same,Activity,[3],19%
same,Activity,[4],Toxic
same,Activity,[5],Toxic
same,Activity,[6],Toxic
same,Activity,4T1 [7],82.57%
same,Activity,4T1 [8],Active
same,Activity,4T1 [9],Active
Cc1ccc(S(=O)(=O)N2CCOC23C=CC(=O)C=C3)cc1,IC50,MDA-MB-231 [10],390 nM
same,IC50,A549 [11],330 nM
same,IC50,HeLa [12],710 nM
Cc1ccc(S(=O)(=O)N2C(=O)COC23C=CC(=O)C=C3)cc1,IC50,MDA-MB-231 [13],70 nM
same,IC50,A549 [14],110 nM
same,Activity,[15],Non-Toxic
same,IC50,HeLa [16],180 nM
same,IC50,HepG2,> 10000 nM
same,Activity,MDA-MB-231 [17],0.72%
same,Activity,MDA-MB-231 [18],3%
same,Activity,MDA-MB-231 [19],10.9%
same,viability at 10 µM,MDA-MB-231 [20],85.4%
same,mortality,[21],30%
same,mortality,[22],50%
same,mortality,[23],60%
same,Activity,[24],Non-Toxic
same,Activity,[25],Non-Toxic
same,Activity,[26],Non-Toxic
same,Activity,[27],Non-Toxic
same,Activity,[28],Non-Toxic
same,Activity,[29],Non-Toxic
same,Activity,[30],Non-Toxic
same,Activity,[31],Non-Toxic
same,Activity,[32],Non-Toxic
same,Activity,[33],Non-Toxic
same,Activity,[34],Non-Toxic
same,Activity,[35],Non-Toxic
same,Activity,[36],Non-Toxic
same,Activity,[37],Non-Toxic
same,Activity,[38],Non-Toxic
same,Activity,4T1 [1],376 mm3
same,Activity,4T1 [2],39%
same,Activity,[3],Non-Toxic
same,Activity,[39],Non-Toxic
same,Activity,[40],Non-Toxic
same,Activity,[41],Non-Toxic
same,Activity,[42],Non-Toxic
same,Activity,[43],Non-Toxic
same,Activity,[44],Non-Toxic
same,Activity,4T1 [7],95.64%
same,Activity,MDA-MB-231 [45],65.65%
same,Activity,MDA-MB-231 [46],10.29%
same,Activity,MDA-MB-231 [47],24.06%
same,Activity,MDA-MB-231 [48],1.8%
same,Activity,4T1 [8],Active
same,Activity,4T1 [9],Active
